Test [1] has as its system C. albicans cap1/cap1 mutant strain, CAC1-1A. Description: Filamentous growth in SLAD agar with exogenous cAMP or dbcAMP. The format is cell-based, Candida albicans. The conditions noted are these: SLAD media, 10 mM, 37° C.; for colony morphology / filamentous growth of the cap1/cap1 mutant: 5 days. As to the method: (§1) To determine the effect of exogenous cAMP on bud-hypha transitions and filamenious growth of cap1/cap1 mutants, stationary phase yeasts were induced to form germ tubes and hyphae in liquid M199+serum (10^6 cells/ml) or in SLAD agar plates containing 10 mM cAMP or dbcAMP (Sigma). M199+serum containing cAMP or dbcAMP were incubated at 37° C. for 20 h and the frequency of germ tube formation was measured at various time points. SLAD plates containing cAMP or dbcAMP were incubated at 37° C. for 5 days, and filamentous growth was monitored daily.

For test [2], the system named is C. albicans wild type CAP1/CAP1 strain, UnoPP-1. The format is cell-based, Candida albicans. The conditions noted are these: SLAD media, 10 mM, 37° C.
Test [3] deals with C. albicans pde2/pde2 mutant (BPS4). As to conditions: for relative growth (CFU vs YNB alone) of the pde2/pde2 mutant: 6 h; for doubling time of pde2/pde2 mutants: 30° C.; for swollen pde2/pde2 mutant cells: YNB, 6 hours. As to the method:
(§2) C. albicans strains were grown in YNB at 30° C. to middle-logarithmic phase, and then an equal number of cells were subcultured into YNB or YNB containing 4 mM and 40 mM cAMP and grown for 6 to 9 hours. Every hour during incubation, optical density and cell number/ml of cultures were measured by a photoelectric colorimeter (Klett-Summerson, Klett MFG. Co., Inc, NY, N.Y.) and hemacytometer, respectively. The percent of dead cells was determined by staining with 0.1% methylene blue (Sigma, St. Louis, Mo.). Also, cell morphologies were observed by microscopy. After a 6-hour incubation of each strain with YNB containing the indicated amounts of exogenous cAMP, culture samples were serially diluted, spread on YPD plates, and incubated for 2 days to determine the number of colony forming units (CFU). The percent relative growth was calculated by using the following formula: [(CFU of a strain incubated for 6 h in YNB having an indicated concentration of cAMP)/(CFU of the strain incubated for 6 h in YNB only)]×100%.

Test [4] relates to C. albicans strains with a wild type PDE2 gene (UnoPP-1, BPS1, BPS9). The conditions noted are these: YNB, 4 mM and 40 mM cAMP. How it is done: as §2
The subject of test [5] is PDE2 mRNA in C. albicans cap1/cap1 mutant. As to conditions: cAMP 10 mM, germ tube induction conditions, data not shown.
Test [6] relates to C. albicans cap1/cap1 mutant strain, CAC1-1A. Briefly: Bud-hypha transitions in liquid M199+serum with exogenous cAMP or dbcAMP. The format is cell-based, Candida albicans. The conditions noted are these: 10 mM. As to the method:
as §1

In test [7] the test system is C. albicans cap1/cap1 pde2/pde2 mutant (BPS18). Description: Filamentation in SLAD agar with or without dbcAMP. The format is cell-based, Candida albicans. The conditions noted are these: SLAD agar media, 10 mM dbcAMP.
Experimental: Filamentous growth of each strain was induced at 37° C. for 6 days in solid Spider media (a11-15) and 2% agar media containing 4% bovine calf serum (a16-20).
For growth analysis in agar-containing media, stationary-phase yeasts were mixed (200 cells/25 ml of medium) with liquefied agar Spider medium (Liu et al., 266 SCIENCE 1723-1726 (1994)), SLAD (synthetic low ammonium dextrose)(Csank et al., 66 INFECT. IMMUN. 2713-2721 (1998)), and 2% agar containing 4% bovine calf serum (Lo et al., 90 CELL 939-949 (1997).

Read-outs that look alike come from different tables or passages of the source.

Regarding `Nc1ncnc2c1ncn2[C@@H]1O[C@@H]2COP(=O)(O)O[C@H]2[C@H]1O` [cAMP, cyclic AMP], the “timing of onset of filamentous growth of the cap1/cap1 mutant” value in test [1] is on record as “two”. Further, the “colony morphology / filamentous growth of the cap1/cap1 mutant” value in test [1] is on record as “dramatically altered the colony morphology”. For the same compound, in test [2], the “filamentous growth of the wild type strain” value was “slightly enhanced”. The entries for the “relative growth (CFU vs YNB alone) of the pde2/pde2 mutant” value in test [3] (YNB containing 4 mM cAMP) and in test [3] (YNB containing 40 mM cAMP) were “about 70%” and roughly 40%, respectively. Further, the entries for the “doubling time of pde2/pde2 mutants” value in test [3] (YNB with 4 mM cAMP) and in test [3] (YNB with 40 mM cAMP) were 3.7 h and 4.8 h, respectively. In addition, the “swollen pde2/pde2 mutant cells” value in test [3] (4 mM cAMP) was ~50 % of cells; in test [3] (40 mM cAMP), “greater than 90 % of cells”. For the same compound, the “relative growth rate of strains with a wild type PDE2 gene” value in test [4] is given as “not affected”. In test [5], the “PDE2 mRNA expression in the cap1/cap1 mutant” value is on record as “the same with or without exogenous cAMP”.
Turning to `CCCC(=O)Nc1ncnc2c1ncn2[C@@H]1O[C@@H]2COP(=O)(O)O[C@H]2[C@H]1OC(=O)CCC` [dbcAMP, dibutyryl cAMP], in test [1], the “timing of onset of filamentous growth of the cap1/cap1 mutant” value was “two” and the “colony morphology / filamentous growth of the cap1/cap1 mutant” value is listed as “dramatically altered the colony morphology”. The “filamentous growth of the wild type strain” value in test [2] is listed as “slightly enhanced”. Also, the “hypha formation of the cap1/cap1 mutant in liquid media” value in test [6] (37° C., 10^6 cells/ml) is given as “enhanced”. In test [6] (at 3 h), the “pseudohyphae detected in the presence vs absence of dbcAMP” value was “twice as many pseudohyphae”. In addition, the “filamentation of the cap1/cap1 pde2/pde2 mutant” value in test [7] was “increase filamentation of the cap1/cap1 pde2/pde2 mutant to near wild type levels”.

The values are drawn from patent US7270975B2, “Methods for regulating bud-hypha transitions and cAMP levels in Candida albicans” (priority 2001, dated 2007).
